Experimental data: US11555212B2, “Process for the production of sulfated phenolic compounds using modified Escerichia coli” (CysBio ApS, priority 2016, dated 2023)

How the values were obtained:
[1] = target: T1, SULT1A1 from Rattus norvegicus (Rattus norvegicus, UniProt P17988); experiment: Percent reduction of phenolic compounds by E. coli KRX expressing a sulfotransferase; type: cell-based; settings: M9, 0.1 mM IPTG, 0.1% rhamnose, compound 50 μM, overnight 37° C.
T1 construct: 1, 3, 4, 5, and 6 were cloned amplified from liver tissue cDNA; expressed in transfected cells
Description: M9 medium containing 0.2% glucose, 0.1 mM IPTG, 0.1% rhamnose, and 100 μg/mL ampicillin was prepared.
The strains described above were grown in 2×YT medium with 100 μg/mL ampicillin overnight before their were used to inoculate the media by 50-fold dilution. The cultures were grown overnight with vigorous shaking at 37° C. […] The compounds were detected by UV absorbance except for 4-methylbelliferone, which was measured by fluorescence.

[2] = target: T2, SULT1A1 from rat (Rattus norvegicus) (Rattus norvegicus, UniProt P17988); experiment: Percent reduction in concentration of phenolic compounds by E. coli expressing a sulfotransferase, compared to control strain; type: cell-based; settings: compared to the control strain, M9, 1 mM IPTG, single substrate at start concentration of Table 14, overnight 37° C.; for Percent reduction in concentration, SULT1A1 + CysDNCQ: E. coli BL21(DE3)pLysS expressing SULT1A1 rat + CysDNCQ; for Percent reduction in concentration, SULT1A1: E. coli BL21(DE3)pLysS expressing SULT1A1 rat
T2 construct: 1, 3, 4, 5, and 6 were cloned amplified from liver tissue cDNA; expressed in transfected cells
Description: (§1) The concentration of p-courmaric acid (pHCA) and zosteric acid in the supernatant was quantified by high performance liquid chromatography (HPLC) and compared to chemical standards. HPLC was done on a Thermo setup using a HS-F5 column and mobile phases: 5 mM ammonium formate pH 4.0 (A) and acetonitrile (B) at 1.5 mL min-1, using a gradient elution starting at 5% B. From 0.5 min after injection to 7 min, the fraction of B increased linearly from 5% to 60%, and between 9.5 min and 9.6 the fraction of B decreased back to 5%, and remaining there until 12 min. pHCA and zosteric acid were quantified by measuring absorbance at 277 nm.
To further test the range of substrates that can be sulfated, we used strains carrying plasmids expressing SULT1A1 from rat (Rattus norvegicus) and SULT1E1 from chicken (Gallus gallus domesticus) (Example 1) cloned into the expression vector pETDuet-1, and cysDNCQ from E. coli cloned into expression vector pRSFDuet-1 (Example 2). The plasmids were introduced into the E. coli expression strain BL21(DE3)pLysS as described previously, selecting for transformants with appropriate antibiotics, namely 34 μg mL^−1 chloramphenicol for pLysS, 100 μg mL^−1 ampicillin for pETDuet-1-based vectors, and 100 μg mL^−1 kanamycin for pRSFDuet-1-based vectors. […] A control strain without a sulfotransferase gene or cysDNCQ operon was also examined.
The strains were precultured in 2×YT medium with appropriate antibiotics. 10 μL of these precultures were used to inoculate M9 media with 1 mM IPTG and none or a single substrate for sulfation. After overnight growth at 37° C., 300 rpm the supernatants were withdrawn and examined by HPLC as described in Example 1. The compounds were detected by UV absorbance.

[3] = tested on: SULT1E1 from chicken (Gallus gallus domesticus); experiment: as above; type: cell-based; settings: E. coli BL21(DE3)pLysS expressing SULT1E1 chicken, compared to the control strain; M9, 1 mM IPTG, single substrate at start concentration of Table 14; overnight 37° C.
[4] = target: T3, SULT1A1 Canis lupus familiaris (Canis lupus familiaris, UniProt Q29476); experiment: Percent conversion of substrates by E. coli expressing a sulfotransferase; type: cell-based; settings: E. coli BL21(DE3)pLysS expressing SULT1A1 Canis lupus familiaris; M9; pHCA 100 μM, resveratrol 95 μM or kaempferol 87 μM; overnight 37° C.
T3 construct: 1, 3, 4, 5, and 6 were cloned amplified from liver tissue cDNA; expressed in transfected cells; host or cells: E. coli BL21(DE3)pLysS
Description: as §1
(§2) Different sulfotransferases were examined for their substrate specificities against three substrates. We tested the sulfotransferases mentioned in example 1, as well as additional ones. The genes encoding these were cloned as described in example 1 using the primers shown in the table below from cDNA libraries of the respective organisms, except for the SULT1A1 from rat (Rattus norvegicus) codon-optimized for E. coli (described above). The resulting vectors were transformed into BL21(DE3)pLysS.
(§3) The resulting strains were grown in M9 medium containing either 100 μM pHCA, 95 μM resveratrol or 87 μM kaempferol. The cultures were grown overnight at 37° C., 300 rpm. The following day the supernatants were isolated and examined by HPLC as described in example 1.

SULT1A1 Equus caballus = experiment: as above; type: cell-based; settings: E. coli BL21(DE3)pLysS expressing SULT1A1 Equus caballus; M9; pHCA 100 μM, resveratrol 95 μM or kaempferol 87 μM; overnight 37° C.
Description: as §1, §2, §3

[5] = target: T4, SULT1A1 Rattus norvegicus (Rattus norvegicus, UniProt P17988); experiment: as above; type: cell-based; settings: M9, pHCA 100 μM, resveratrol 95 μM or kaempferol 87 μM, overnight 37° C.
T4 construct: 1, 3, 4, 5, and 6 were cloned amplified from liver tissue cDNA; expressed in transfected cells
Description: as §1, §2, §3

[6] = tested on: SULT1A1 Sus scrofa domesticus; experiment: as above; type: cell-based; settings: E. coli BL21(DE3)pLysS expressing SULT1A1 Sus scrofa domesticus; M9; pHCA 100 μM, resveratrol 95 μM or kaempferol 87 μM; overnight 37° C.
Description: as §1, §2, §3

SULT1A1 human = target: T5, SULT1A1 human (Homo sapiens, UniProt P50225, V223M); experiment: as above; type: cell-based; settings: E. coli BL21(DE3)pLysS expressing SULT1A1 human; M9; pHCA 100 μM, resveratrol 95 μM or kaempferol 87 μM; overnight 37° C.
T5 construct: expressed in transfected cells; host or cells: E. coli BL21(DE3)pLysS
Description: as §1, §2, §3

[7] = tested on: SULT1C1 Gallus gallus domesticus; experiment: as above; type: cell-based; settings: E. coli BL21(DE3)pLysS expressing SULT1C1 Gallus gallus domesticus; M9; pHCA 100 μM, resveratrol 95 μM or kaempferol 87 μM; overnight 37° C.
Description: as §1, §2, §3

[8] = tested on: SULT1E1 Gallus gallus domesticus; experiment: as above; type: cell-based; settings: E. coli BL21(DE3)pLysS expressing SULT1E1 Gallus gallus domesticus; M9; pHCA 100 μM, resveratrol 95 μM or kaempferol 87 μM; overnight 37° C.
Description: as §1, §2, §3

D. rerio SULT6B1 = experiment: Percent reduction of compounds by E. coli KRX expressing distantly related sulfotransferases; type: cell-based, Danio rerio; settings: 100 μM resveratrol, 20 μM kaempferol or 3-hydroxy-4-methoxycinnamic acid
Description: The gene (sequence SEQ ID NO: 102) encoding SULT6B1 (sequence SEQ ID NO: 103) from Danio rerio was codon-optimized for E. coli and synthesized as in example 1.
(§4) The genes were cloned into the vector pETDuet-1 as described in Example 1, and the resulting vectors were transformed into E. coli KRX (obtained from Promega).

[9] = tested on: H. ochraceum DSM 14365 Hoch_6098; experiment: as above; type: cell-based, Haliangium ochraceum DSM 14365; settings: E. coli KRX expressing H. ochraceum DSM 14365 Hoch_6098; 100 μM resveratrol, 20 μM kaempferol or 50 μL 3-hydroxy-4-methoxycinnamic acid
Description: The gene (sequence SEQ ID NO: 104) encoding Hoch_6098 (sequence SEQ ID NO: 105) from the bacterium Haliangium ochraceum DSM 14365 was codon-optimized for E. coli and synthesized as in example 1.
as §4

D. rerio SULT1ST1 = target: T6, D. rerio SULT1ST1 (Danio rerio, UniProt Q6PH37); experiment: as above; type: cell-based; settings: 100 μM resveratrol, 20 μM kaempferol or 3-hydroxy-4-methoxycinnamic acid
T6 construct: expressed in transfected cells; host or cells: E. coli KRX (Promega), vector pETDuet-1
T6 sequence (Q6PH37 1-299): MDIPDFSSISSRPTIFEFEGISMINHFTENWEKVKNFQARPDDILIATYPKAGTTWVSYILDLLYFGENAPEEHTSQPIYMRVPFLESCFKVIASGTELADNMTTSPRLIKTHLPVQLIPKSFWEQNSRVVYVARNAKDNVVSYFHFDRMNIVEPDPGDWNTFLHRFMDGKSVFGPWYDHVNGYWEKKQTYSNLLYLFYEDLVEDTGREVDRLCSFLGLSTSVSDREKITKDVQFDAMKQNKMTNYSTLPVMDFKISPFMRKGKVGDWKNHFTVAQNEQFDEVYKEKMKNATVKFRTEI

[10] = E. coli BL21(DE3)pLysS expressing SULT1A1 Rattus norvegicus (Codon-optimized for E. coli)
[11] = E. coli BL21(DE3)pLysS expressing SULT1A1 Rattus norvegicus

T2 sequence (P17988 whole entry): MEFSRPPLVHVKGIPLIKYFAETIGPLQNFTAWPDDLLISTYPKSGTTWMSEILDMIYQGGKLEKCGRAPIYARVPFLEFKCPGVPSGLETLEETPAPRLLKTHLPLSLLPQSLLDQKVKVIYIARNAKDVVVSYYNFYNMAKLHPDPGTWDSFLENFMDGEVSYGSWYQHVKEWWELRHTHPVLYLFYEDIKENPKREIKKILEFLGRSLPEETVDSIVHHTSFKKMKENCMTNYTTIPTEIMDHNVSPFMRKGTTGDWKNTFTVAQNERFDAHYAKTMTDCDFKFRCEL
T1 sequence (P17988 whole entry): as above
T4 sequence (P17988 whole entry): as above
T5 sequence (P50225 whole entry V223M): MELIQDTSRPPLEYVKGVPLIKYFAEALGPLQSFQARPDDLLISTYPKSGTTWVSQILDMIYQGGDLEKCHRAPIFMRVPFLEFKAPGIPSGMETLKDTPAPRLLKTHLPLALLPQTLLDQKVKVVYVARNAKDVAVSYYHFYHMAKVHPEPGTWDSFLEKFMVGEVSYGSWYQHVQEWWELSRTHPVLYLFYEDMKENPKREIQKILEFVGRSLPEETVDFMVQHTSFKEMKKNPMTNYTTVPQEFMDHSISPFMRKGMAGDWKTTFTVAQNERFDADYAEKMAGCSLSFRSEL
T3 sequence (Q29476 whole entry): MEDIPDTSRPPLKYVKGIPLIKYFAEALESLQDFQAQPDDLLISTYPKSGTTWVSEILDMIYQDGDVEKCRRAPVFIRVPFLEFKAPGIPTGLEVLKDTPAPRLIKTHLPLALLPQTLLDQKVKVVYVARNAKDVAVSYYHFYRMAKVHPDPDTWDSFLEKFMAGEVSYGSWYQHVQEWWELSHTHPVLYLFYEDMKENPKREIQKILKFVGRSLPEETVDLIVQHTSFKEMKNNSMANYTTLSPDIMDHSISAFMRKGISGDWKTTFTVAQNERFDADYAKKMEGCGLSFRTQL

| Compound | Percent reduction, SULT1A1 [1] [%] | Percent reduction in concentration, SULT1A1 + CysDNCQ [2] [%] | Percent reduction in concentration, SULT1A1 [2] [%] | Percent reduction in concentration, SULT1E1 [3] [%] | other results |
| --- | --- | --- | --- | --- | --- |
| 4-ethylguaiacol | 50 |  |  |  |  |
| O=C(O)CCc1ccc(O)cc1 [3-(4-Hydroxyphenyl)propionic acid] |  | 7 | 3 | 1 |  |
| COc1ccc(C=CC(=O)O)cc1O [3-Hydroxy-4-methoxycinnamic acid] |  | 62 | 51 |  |  |
| O=C(O)C(=O)Cc1ccc(O)cc1 [4-Hydroxyphenylpyruvic acid, 4-hydroxyphenylpyruvic acid] |  | 64 | 47 | 100 |  |
| CC(=O)Nc1ccc(O)cc1 [4-acetamidophenol, reference compound] |  | 30 | 24 | 10 |  |
| CCc1ccc(O)cc1 [4-ethylphenol] | 100 |  |  |  |  |
| O=C(O)c1ccc(O)cc1 [4-hydroxybenzoic acid] |  | 6 | 5 | 4 |  |
| Cc1cc(=O)oc2cc(O)ccc12 [4-methylbelliferone] | 100 |  |  |  |  |
| O=[N+]([O-])c1ccc(O)cc1 [4-nitrophenol] | 30 |  |  |  |  |
| C=Cc1ccc(O)cc1 [4-vinylphenol] | 100 |  |  |  |  |
| O=c1cc(-c2ccc(O)cc2)oc2cc(O)cc(O)c12 [Apigenin] |  | 99 | 41 | 98 |  |
| COc1cc(/C=C/C(=O)O)ccc1O [Ferulic acid, ferulic acid] |  | 100 | 72 | 67 |  |
| O=c1cc(-c2ccc(O)c(O)c2)oc2cc(O)cc(O)c12 [Luteolin] |  | 37 | 27 | 0 |  |
| O=C1C[C@@H](c2ccc(O)cc2)Oc2cc(O)cc(O)c21 [Naringenin] | 60 |  |  |  |  |
| O=c1c(O)c(-c2ccc(O)c(O)c2)oc2cc(O)cc(O)c12 [Quercetin] |  | 81 | 75 | 74 |  |
| COc1cc(/C=C/C(=O)O)cc(OC)c1O [Sinapic acid, sinapic acid] | 31 |  |  |  |  |
| COc1cc(C(=O)O)ccc1O [Vanillic acid, vanillic acid] |  | 39 | 33 | 0 |  |
| O=c1c(O)c(-c2ccc(O)c(O)c2)oc2cc(O)ccc12 [fisetin] |  | 100 | 98 | 98 |  |
| O=c1c(O)c(-c2ccc(O)cc2)oc2cc(O)cc(O)c12 [kaempferol, Kaempferol] |  |  |  |  | Percent conversion of the substrate [4]: 60%; Percent conversion of the substrate (SULT1A1 Equus caballus): 96%; Percent conversion of the substrate [5, 10]: 38%; Percent conversion of the substrate [5, 11]: 95%; Percent conversion of the substrate [6]: 45%; Percent conversion of the substrate (SULT1A1 human): 97%; Percent conversion of the substrate [7]: 80%; Percent conversion of the substrate [8]: 47%; Percent reduction (D. rerio SULT6B1): 44%; Percent reduction [9]: 100% |
| Oc1ccc(C=Cc2cc(O)cc(O)c2)cc1 [resveratrol] |  |  |  |  | Percent conversion of the substrate [4]: 61%; Percent conversion of the substrate (SULT1A1 Equus caballus): 100%; Percent conversion of the substrate [5, 10]: 58%; Percent conversion of the substrate [5, 11]: 93%; Percent conversion of the substrate [6]: 88%; Percent conversion of the substrate (SULT1A1 human): 36%; Percent conversion of the substrate [7]: 100%; Percent conversion of the substrate [8]: 100%; Percent reduction (D. rerio SULT1ST1): 80%; Percent reduction [9]: 7% |
